This is an account of results in US20050165085A1, “Polymorphic forms of tegaserod base and salts thereof” (priority 2003, published 2005).

For data set [1] the following is noted: Physician's Desk Reference, 57th Ed., cited from earlier work.
Data set [2] can be described thus: Heating of tegaserod maleate polymorphic forms, form after heating. The data set is classed as physicochemical. The conditions noted are these: for Polymorphic transformation / thermal stability upon heating: statement in text, temperature not given. From the text: X-Ray powder diffraction data were obtained using by method known in the art using a SCINTAG powder X-Ray diffractometer model X'TRA equipped with a solid state detector. Copper radiation of 1.5418 Å was used. A round aluminum sample holder with zero background was used. All peak positions are within ±0.2 degrees two theta.

The nature of data set [3]: Solubility of tegaserod acetate Form J compared with tegaserod base. The data set is classed as physicochemical. Particulars: solvent not stated.

“Also recorded” adds a separate entry of the source.

For `CCCCCNC(=N)N/N=C/c1c[nH]c2ccc(OC)cc12.O=C(O)/C=C\C(=O)O` [tegaserod as the maleate salt, Tegaserod maleate], in data set [1] (ethanol), the Solubility in ethanol result is “slightly soluble”. Besides, the Solubility in water result in data set [1] (water) was “very slightly soluble”.
For `CCCCCNC(=N)N/N=C/c1c[nH]c2ccc(OC)cc12.O=C(O)/C=C\C(=O)O` [Form B, Tegaserod maleate], the “Polymorph form after heating” value in data set [2] (2 hr. at 100 deg., listed as B (wet)) is on record as “B > C + A”; in data set [2] (2 hr. at 120 deg., listed as B (wet)) it was “A > C”. Further, the “Polymorphic transformation / thermal stability upon heating” value is on record as “transform to Form C upon heating before it transforms to Form A” in data set [2] and “transform to Form A upon heating” in data set [2] (listed as B).
Take “Tegaserod acetate [Tegaserod acetate Form J]”: in data set [3], the “Solubility relative to tegaserod base” value is on record as “less soluble than tegaserod base”.
Take `CCCCCNC(=N)N/N=C/c1c[nH]c2ccc(OC)cc12.O=C(O)/C=C\C(=O)O` [Form D, Tegaserod maleate]: in data set [2], the “Polymorphic transformation / thermal stability upon heating” value is “transformation to Form A; also recorded: transforms to Form A upon heating”.
In the case of `CCCCCNC(=N)N/N=C/c1c[nH]c2ccc(OC)cc12.O=C(O)/C=C\C(=O)O` [Form B1, Tegaserod maleate], the “Polymorphic transformation upon heating, assumed from DSC curves” value in data set [2] (assumed from DSC curves, all forms show the melting peak of Form A) is reported as “transform to Form A upon heating”.
Take `CCCCCNC(=N)N/N=C/c1c[nH]c2ccc(OC)cc12.O=C(O)/C=C\C(=O)O` [Form C, Tegaserod maleate]: the “Polymorph form after heating” value in data set [2] (2 hr. at 140 deg., listed as C) was “C > A”. In addition, the “Polymorphic transformation / thermal stability upon heating” value in data set [2] (listed as C) is “transform to Form A upon heating”.
For the molecule `CCCCCNC(=N)N/N=C/c1c[nH]c2ccc(OC)cc12.O=C(O)/C=C\C(=O)O` [Form A, Tegaserod maleate, reference compound], in data set [2], the “Polymorphic transformation / thermal stability upon heating” value is on record as “exhibits thermal stability at higher temperatures”.
As to `CCCCCNC(=N)N/N=C/c1c[nH]c2ccc(OC)cc12.O=C(O)/C=C\C(=O)O` [Form B2, Tegaserod maleate], the “Polymorph form after heating” value in data set [2] (2 hr. at 80 deg.) was “B + C + A”; in data set [2] (2 hr. at 100 deg.) it was “B + C + A”; in data set [2] (2 hr. at 120 deg.), “C + A”; in data set [2] (2 hr. at 140 deg., listed as B2), “C + A”. In data set [2], the “Polymorphic transformation / thermal stability upon heating” value was “transform to Form A upon heating”.
